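Method: 48-hour compound exposure of cells in 96-well plates, five concentrations, linear interpolation of endpoints. At the GI50, growth is halved.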 Calls of active or inactive are those of the source. No stated cut-off is given here; in the data, active = GI50 up to about 1.1 µM and inactive = higher.
Experiments:
Assay in all cases: growth of human tumour cells (NCI), 48 h
[1] = test system: HL-60
[2] = test system: OVCAR-5
[3] = test system: TK-10
[4] = test system: OVCAR-3
[5] = test system: A498
[6] = test system: Hs-578T
[7] = test system: HCT-116
[8] = test system: SW-620
[9] = test system: CAKI-1
[10] = test system: SNB-19
[11] = test system: HOP-62
[12] = test system: MOLT-4
[13] = test system: CCRF-CEM
[14] = test system: MDA-N
[15] = test system: HCT-15
[16] = test system: NCI-H23
[17] = test system: K562
[18] = test system: UACC-62

## Nc1nc(N)c2cc(-c3ccccc3)cnc2n1
[1]
  GI50: 13.3 µM (inactive)
[2]
  GI50: 14.6 µM (inactive)
[3]
  GI50: 16.3 µM (inactive)
[4]
  GI50: 18.2 µM (inactive)
[5]
  GI50: 14.9 µM (inactive)
[6]
  GI50: 20.2 µM (inactive)
[7]
  GI50: 4.66 µM (inactive)
[8]
  GI50: 9.84 µM (inactive)
[9]
  GI50: 16 µM (inactive)
[10]
  GI50: 18.2 µM (inactive)
[11]
  GI50: 17 µM (inactive)
[12]
  GI50: 9.89 µM (inactive)
[13]
  GI50: 20.1 µM (inactive)
[14]
  GI50: 9.86 µM (inactive)
[15]
  GI50: 27.4 µM
[16]
  GI50: 12.9 µM (inactive)
[17]
  GI50: 3.36 µM (inactive)

## COc1ccc(C[N+]23C(CC[C@H]2c2ccccc2)CC[C@H]3c2ccccc2)cc1 (some centres not stated)
[1]
  GI50: 4.06 µM (inactive)
[2]
  GI50: 32.3 µM (inactive)
[3]
  GI50: 44.9 µM (inactive)
[4]
  GI50: 6.04 µM (inactive)
[5]
  GI50: 39.7 µM (inactive)
[6]
  GI50: 27.7 µM (inactive)
[7]
  GI50: 24.5 µM (inactive)
[8]
  GI50: 28.2 µM (inactive)
[9]
  GI50: 75.5 µM (inactive)
[10]
  GI50: 27.2 µM (inactive)
[11]
  GI50: 21 µM (inactive)
[12]
  GI50: 21.6 µM (inactive)
[13]
  GI50: 27.5 µM (inactive)
[14]
  GI50: 13.2 µM (inactive)
[17]
  GI50: 6.46 µM (inactive)

## Cc1cccc(Cl)c1NCC(O)CN1CCN(C)CC1 (configuration not stated)
[2]
  GI50: > 100 µM (inactive)
[3]
  GI50: > 100 µM (inactive)
[4]
  GI50: > 100 µM (inactive)
[5]
  GI50: > 100 µM (inactive)
[6]
  GI50: > 100 µM (inactive)
[7]
  GI50: > 100 µM (inactive)
[8]
  GI50: > 100 µM (inactive)
[9]
  GI50: > 100 µM (inactive)
[10]
  GI50: > 100 µM (inactive)
[11]
  GI50: > 100 µM (inactive)
[12]
  GI50: > 100 µM (inactive)
[13]
  GI50: > 100 µM (inactive)
[18]
  GI50: > 100 µM (inactive)
[14]
  GI50: > 100 µM (inactive)
[15]
  GI50: > 100 µM
[16]
  GI50: > 100 µM (inactive)
[17]
  GI50: > 100 µM (inactive)

## Cc1ccc(S(=O)(=O)N/N=C/C(Br)=C(/Br)C(=O)O)cc1
[1]
  GI50: 1.93 µM (inactive)
[2]
  GI50: > 19.7 µM (inactive)
[3]
  GI50: 7.69 µM (inactive)
[4]
  GI50: 6.97 µM (inactive)
[5]
  GI50: 16.4 µM (inactive)
[6]
  GI50: 10.7 µM (inactive)
[7]
  GI50: 1.91 µM (inactive)
[8]
  GI50: 2.2 µM (inactive)
[9]
  GI50: 5.64 µM (inactive)
[10]
  GI50: 13.8 µM (inactive)
[11]
  GI50: 16.2 µM (inactive)
[12]
  GI50: 0.826 µM (active)
[13]
  GI50: 1.42 µM (inactive)
[18]
  GI50: 8.17 µM (inactive)
[14]
  GI50: 4.69 µM (inactive)
[15]
  GI50: 2.19 µM
[16]
  GI50: 6.1 µM (inactive)

## O=C(O)Cc1cccc2c(=O)c3ccccc3oc12
[1]
  GI50: > 100 µM (inactive)
[3]
  GI50: > 100 µM (inactive)
[4]
  GI50: > 100 µM (inactive)
[5]
  GI50: > 100 µM (inactive)
[6]
  GI50: > 100 µM (inactive)
[7]
  GI50: > 100 µM (inactive)
[8]
  GI50: > 100 µM (inactive)
[9]
  GI50: > 100 µM (inactive)
[10]
  GI50: > 100 µM (inactive)
[11]
  GI50: > 100 µM (inactive)
[12]
  GI50: > 100 µM (inactive)
[13]
  GI50: > 100 µM (inactive)
[18]
  GI50: 24.3 µM (inactive)
[14]
  GI50: > 100 µM (inactive)
[15]
  GI50: 21.1 µM
[16]
  GI50: > 100 µM (inactive)
[17]
  GI50: > 100 µM (inactive)

## OC(Cc1cnnc2ccccc12)C(Cl)(Cl)Cl (configuration not stated)
[1]
  GI50: > 10 µM (inactive)
[3]
  GI50: > 10 µM (inactive)
[4]
  GI50: > 10 µM (inactive)
[5]
  GI50: > 10 µM (inactive)
[6]
  GI50: > 10 µM (inactive)
[7]
  GI50: > 10 µM (inactive)
[8]
  GI50: > 10 µM (inactive)
[9]
  GI50: > 10 µM (inactive)
[10]
  GI50: > 10 µM (inactive)
[11]
  GI50: > 10 µM (inactive)
[12]
  GI50: > 10 µM (inactive)
[13]
  GI50: > 10 µM (inactive)
[18]
  GI50: > 10 µM (inactive)
[14]
  GI50: > 10 µM (inactive)
[15]
  GI50: > 10 µM
[16]
  GI50: > 10 µM (inactive)
[17]
  GI50: > 10 µM (inactive)

## CC1=CC(=O)C(C(O)(C(F)(F)F)C(F)(F)F)C(C)(C)C1 (configuration not stated)
[1]
  GI50: > 10 µM (inactive)
[3]
  GI50: > 10 µM (inactive)
[4]
  GI50: > 10 µM (inactive)
[5]
  GI50: > 10 µM (inactive)
[6]
  GI50: > 10 µM (inactive)
[7]
  GI50: > 10 µM (inactive)
[8]
  GI50: > 10 µM (inactive)
[9]
  GI50: > 10 µM (inactive)
[10]
  GI50: > 10 µM (inactive)
[11]
  GI50: > 10 µM (inactive)
[12]
  GI50: > 10 µM (inactive)
[13]
  GI50: > 10 µM (inactive)
[18]
  GI50: > 10 µM (inactive)
[14]
  GI50: > 10 µM (inactive)
[15]
  GI50: > 10 µM
[16]
  GI50: > 10 µM (inactive)
[17]
  GI50: > 10 µM (inactive)

## CC1(C)C(CC(=O)O)CCCC1CC(=O)O (configuration not stated)
[2]
  GI50: > 100 µM (inactive)
[3]
  GI50: > 100 µM (inactive)
[4]
  GI50: > 100 µM (inactive)
[5]
  GI50: > 100 µM (inactive)
[6]
  GI50: > 100 µM (inactive)
[7]
  GI50: > 100 µM (inactive)
[8]
  GI50: > 100 µM (inactive)
[9]
  GI50: > 100 µM (inactive)
[10]
  GI50: > 100 µM (inactive)
[11]
  GI50: > 100 µM (inactive)
[12]
  GI50: > 100 µM (inactive)
[13]
  GI50: > 100 µM (inactive)
[18]
  GI50: > 100 µM (inactive)
[14]
  GI50: > 100 µM (inactive)
[15]
  GI50: > 100 µM
[16]
  GI50: > 100 µM (inactive)
[17]
  GI50: > 100 µM (inactive)

## CCN1CCN(c2nc3ccccc3nc2C(=O)c2ccc(OC)cc2)CC1
[1]
  GI50: > 100 µM (inactive)
[2]
  GI50: 56.8 µM (inactive)
[3]
  GI50: 22.6 µM (inactive)
[4]
  GI50: 69.7 µM (inactive)
[5]
  GI50: 37.1 µM (inactive)
[6]
  GI50: 38.6 µM (inactive)
[7]
  GI50: 6.07 µM (inactive)
[8]
  GI50: 30.3 µM (inactive)
[9]
  GI50: 39.8 µM (inactive)
[10]
  GI50: 90.2 µM (inactive)
[11]
  GI50: 16 µM (inactive)
[12]
  GI50: 28.8 µM (inactive)
[18]
  GI50: 20.6 µM (inactive)
[14]
  GI50: 32.1 µM (inactive)
[15]
  GI50: 49.4 µM
[16]
  GI50: 27 µM (inactive)
[17]
  GI50: 43.9 µM (inactive)

## S=c1[nH]c2ccc(Br)cc2c(=S)s1
[1]
  GI50: 21.6 µM (inactive)
[2]
  GI50: 19.2 µM (inactive)
[3]
  GI50: 32.9 µM (inactive)
[4]
  GI50: 26.5 µM (inactive)
[6]
  GI50: 40.5 µM (inactive)
[7]
  GI50: 21.5 µM (inactive)
[8]
  GI50: 30.8 µM (inactive)
[9]
  GI50: 21.8 µM (inactive)
[10]
  GI50: 31.5 µM (inactive)
[11]
  GI50: 34.8 µM (inactive)
[12]
  GI50: 29.9 µM (inactive)
[13]
  GI50: 30.8 µM (inactive)
[18]
  GI50: 18 µM (inactive)
[14]
  GI50: 23.4 µM (inactive)
[15]
  GI50: 29.5 µM
[16]
  GI50: 25.6 µM (inactive)
[17]
  GI50: 29.6 µM (inactive)

## O=[N+]([O-])c1ccc(/C(=N/c2ccccc2)SS/C(=N\c2ccccc2)c2ccc([N+](=O)[O-])o2)o1
[1]
  GI50: 2.09 µM (inactive)
[2]
  GI50: 2.08 µM (inactive)
[3]
  GI50: 3.13 µM (inactive)
[4]
  GI50: 1.53 µM (inactive)
[6]
  GI50: 2.32 µM (inactive)
[7]
  GI50: 1.5 µM (inactive)
[8]
  GI50: 0.425 µM (active)
[9]
  GI50: 1.97 µM (inactive)
[10]
  GI50: 1.84 µM (inactive)
[11]
  GI50: 2.17 µM (inactive)
[12]
  GI50: 2.51 µM (inactive)
[13]
  GI50: 2.03 µM (inactive)
[18]
  GI50: 1.61 µM (inactive)
[14]
  GI50: 2.72 µM (inactive)
[15]
  GI50: 0.552 µM
[16]
  GI50: 1.6 µM (inactive)
[17]
  GI50: 1.34 µM (inactive)

## CC(C)(C)OC(=O)Cn1ncn(NC(=O)Cc2ccccc2)c1=S
[2]
  GI50: > 10 µM (inactive)
[3]
  GI50: > 10 µM (inactive)
[4]
  GI50: > 10 µM (inactive)
[5]
  GI50: > 10 µM (inactive)
[6]
  GI50: > 10 µM (inactive)
[7]
  GI50: > 10 µM (inactive)
[8]
  GI50: > 10 µM (inactive)
[9]
  GI50: > 10 µM (inactive)
[10]
  GI50: > 10 µM (inactive)
[11]
  GI50: > 10 µM (inactive)
[12]
  GI50: > 10 µM (inactive)
[13]
  GI50: > 10 µM (inactive)
[18]
  GI50: > 10 µM (inactive)
[14]
  GI50: > 10 µM (inactive)
[15]
  GI50: > 10 µM
[16]
  GI50: > 10 µM (inactive)
[17]
  GI50: > 10 µM (inactive)

Source: ChEMBL document CHEMBL1201862, “PubChem BioAssay data set” (2004)
